Key:
Test in all cases: CTG-3D luminescence at 96 h relative to day-0 seeding control (ratio to day 0); higher = more growth / less cytotoxicity; PDxO 3D drug screen, 96 h, CTG-3D normalised to day-0 seeding control.
[1] = system: HCI-008 (organoid from a HER2-enriched breast cancer xenograft)
[2] = system: HCI-010 (organoid from a breast cancer xenograft)
[3] = system: HCI-011.E2 (organoid from an ER-positive breast cancer xenograft)
[4] = system: HCI-023 (organoid from a triple-negative breast cancer xenograft)
[5] = system: HCI-025 (organoid from a breast cancer xenograft)
[6] = system: HCI-027 (organoid from a triple-negative breast cancer xenograft)

CCN1CCN(Cc2ccc(Nc3ncc(F)c(-c4cc(F)c5nc(C)n(C(C)C)c5c4)n3)nc2)CC1 [abemaciclib]
CTG-3D luminescence at 96 h
Settings	12.5 pM	0.00025 µM	0.005 µM	0.1 µM	1 µM	10 µM	100 µM	625 fM
[1], days in culture: 228	1.42	1.63	1.38	1.89	1.86	1.53	0.0137	1.79
[1], days in culture: 244	1.57	2.05	1.87	2.13	2.12	2.51	0.0231	2.52
[2], days in culture: 52	1.92	2.34	2.3	2.47	1.99	0.77	0.0133	2.09
[2], days in culture: 65	1.68	1.83	2.02	1.78	1.2	0.0257	0.00729	1.65
[2], days in culture: 103	3.48	3.18	3.28	3.44	3.5	2.6	0.0301	2.98
[3], days in culture: 74	1.84	2.83	2.59	2.7	2.61	1.72	0.00196	2.79
[4], days in culture: 111	1.62	1.22	1.3	1.11	0.658	0.377	0.00981	1.51
[4], days in culture: 128	1.77	1.494	1.47	1.52	0.984	1.15	0.0139	1.84
[5], days in culture: 172	3.01	1.55	3.2	2.1	2.55	1.91	0.0181	2.18
[5], days in culture: 209	2.03	1.8	1.98	2.2	2.46	1.27	0.0124	1.49
[5], days in culture: 218	1.37	1.71	1.83	1.55	1.46	1.84	0.0142	1.33
[6], days in culture: 176	2.08	1.51	2.54	2.32	1.53	0.242	0.0171	1.82
[6], days in culture: 194	1.66	1.49	1.8	1.97	1.87	1.39	0.0205	1.89
[6], days in culture: 201	2.8	2.7	2.69	2.54	2.15	1.35	0.018	2.37

[3]
Settings	CTG-3D luminescence at 96 h
12.5 pM	1.49
0.00025 µM	1.5
0.005 µM	1.57
0.1 µM	1.9
1 µM	1.52
10 µM	1.04
100 µM	0.00535
625 fM	1.6

C=CCn1c(=O)c2cnc(Nc3ccc(N4CCN(C)CC4)cc3)nc2n1-c1cccc(C(C)(C)O)n1 [adavosertib]
CTG-3D luminescence at 96 h
Settings	12.5 pM	0.00025 µM	0.005 µM	0.1 µM	1 µM	10 µM	100 µM	625 fM
[1], days in culture: 228	2.01	1.96	1.71	1.89	0.689	0.46	0.251	1.88
[1], days in culture: 244	1.42	1.98	1.93	1.91	0.808	0.555	0.252	2.27
[2], days in culture: 52	2.37	2.26	2.59	1.87	1	0.21	0.0806	2.17
[2], days in culture: 65	1.57	1.67	1.73	1.64	0.816	0.276	0.126	1.61
[2], days in culture: 103	3.65	3.76	3.59	2.95	1.62	0.459	0.242	3.13
[3], days in culture: 74	1.66	2.29	2.11	2.08	2.2	2.35	1.38	2.46
[4], days in culture: 111	1.63	1.12	1.18	1.1	0.554	0.112	0.0325	1.39
[4], days in culture: 128	1.68	1.92	1.34	1.47	0.441	0.148	0.06302	1.85
[5], days in culture: 172	2.76	1.83	3.85	2	1.8	0.188	0.128	1.79
[5], days in culture: 209	1.68	1.93	1.69	1.36	1.03	0.124	0.157	2.05
[5], days in culture: 218	1.7	1.86	1.94	1.75	1.05	0.215	0.0695	1.86
[6], days in culture: 176	1.72	1.45	2.67	1.21	0.185	0.0765	0.0542	2.5
[6], days in culture: 194	1.64	1.52	1.33	1.65	0.158	0.0827	0.0536	1.42
[6], days in culture: 201	1.68	1.69	2.08	2.23	0.149	0.0964	0.0691	1.7

[3]
Settings	CTG-3D luminescence at 96 h
12.5 pM	1.73
0.00025 µM	1.67
0.005 µM	1.49
0.1 µM	1.89
1 µM	1.41
10 µM	1.73
100 µM	1.51
625 fM	1.62

CC[C@H](NC(=O)[C@H](C)NC)C(=O)N1C[C@@H](O)C[C@H]1Cc1c(-c2[nH]c3cc(F)ccc3c2C[C@@H]2C[C@H](O)CN2C(=O)[C@H](CC)NC(=O)[C@H](C)NC)[nH]c2cc(F)ccc12 [birinapant]
CTG-3D luminescence at 96 h
Settings	12.5 pM	0.00025 µM	0.005 µM	0.1 µM	1 µM	10 µM	100 µM	625 fM
[1], days in culture: 228	1.3	1.73	0.611	0.11	0.147	0.206	0.162	1.43
[1], days in culture: 244	1.27	1.82	1.05	0.549	0.521	0.713	0.51	2.04
[2], days in culture: 52	2.04	2.47	2.12	2.26	1.6	1.52	1.05	2.18
[2], days in culture: 65	1.7	1.59	1.72	1.47	1.43	1.23	0.618	1.66
[2], days in culture: 103	3.3	3.66	3.43	2.74	2.62	2.1	0.973	2.9
[3], days in culture: 74	2.25	2.3	1.91	1.82	1.85	1.48	1.22	2.46
[4], days in culture: 111	1.31	0.929	0.368	0.0512	0.0433	0.0326	0.0111	1.35
[4], days in culture: 128	1.21	1.13	0.23	0.0897	0.044	0.0472	0.006598	1.75
[5], days in culture: 172	2.24	1.37	1.16	0.15	0.319	0.166	0.0157	1.82
[5], days in culture: 209	1.87	1.95	1.01	0.628	0.388	0.374	0.241	1.9
[5], days in culture: 218	1.84	1.78	1.79	1.23	0.859	0.811	0.542	1.83
[6], days in culture: 176	1.24	1.19	1.69	1.22	1.62	1.08	0.00679	1.18
[6], days in culture: 194	1.58	1.02	0.983	0.99	1.14	1.31	0.129	1.53
[6], days in culture: 201	1.64	1.19	1.14	0.985	0.933	1.13	0.11	1.76

[3]
Settings	CTG-3D luminescence at 96 h
12.5 pM	1.4
0.00025 µM	1.53
0.005 µM	1.16
0.1 µM	1.61
1 µM	1.34
10 µM	1.59
100 µM	0.956
625 fM	1.72

NC1(C(=O)N[C@@H](CCO)c2ccc(Cl)cc2)CCN(c2nc[nH]c3nccc2-3)CC1 [capivasertib]
CTG-3D luminescence at 96 h
Settings	12.5 pM	0.00025 µM	0.005 µM	0.1 µM	1 µM	10 µM	100 µM	625 fM
[1], days in culture: 228	1.6	2.11	1.54	0.955	0.441	0.222	0.155	1.76
[1], days in culture: 244	1.6	1.98	1.87	1.34	0.546	0.415	0.392	2.08
[2], days in culture: 52	2.05	2.33	2.4	2.54	2.01	1.78	0.545	2.15
[2], days in culture: 65	1.57	1.77	1.93	1.6	1.47	1.18	0.287	1.58
[2], days in culture: 103	3.5	3.47	3.91	3.21	2.35	2.11	0.959	3.23
[3], days in culture: 74	1.84	2.07	2.01	1.54	1	0.548	0.307	2.49
[4], days in culture: 111	1.51	1.39	0.992	0.931	0.434	0.366	0.16	1.39
[4], days in culture: 128	1.4	1.63	1.43	1.22	0.571	0.658	0.277	1.75
[5], days in culture: 172	2.76	1.4	3.17	1.35	1.43	0.474	0.354	2.57
[5], days in culture: 209	1.74	1.99	1.44	0.818	0.472	0.37	0.266	1.74
[5], days in culture: 218	1.88	2.08	1.82	1.2	0.565	0.592	0.288	1.69
[6], days in culture: 176	2.31	1.3	2.32	1.05	1.12	0.758	0.0952	2.13
[6], days in culture: 194	1.58	1.48	1.43	1.57	1.36	1.2	0.0815	1.55
[6], days in culture: 201	1.67	1.8	1.88	2.17	1.71	0.976	0.0625	1.6

[3]
Settings	CTG-3D luminescence at 96 h
12.5 pM	1.63
0.00025 µM	1.67
0.005 µM	1.43
0.1 µM	1.63
1 µM	1.05
10 µM	0.559
100 µM	0.275
625 fM	1.8

O=C(O)C1(C(=O)O)CCC1.[NH2-].[NH2-].[Pt+2] [carboplatin]
CTG-3D luminescence at 96 h
Settings	12.5 pM	0.00025 µM	0.005 µM	0.1 µM	1 µM	10 µM	100 µM	625 fM
[1], days in culture: 228	1.58	2.29	1.79	2.05	1.57	1.31	0.0629	1.63
[1], days in culture: 244	1.2	1.8	1.7	2.09	1.78	1.89	0.158	1.98
[2], days in culture: 52	1.92	2.23	2.25	2.47	2.55	0.598	0.0393	1.82
[2], days in culture: 65	1.63	1.56	1.74	1.77	1.63	0.511	0.0408	1.74
[2], days in culture: 103	3.69	3.41	3.55	3.27	3.23	0.639	0.13	3.07
[3], days in culture: 74	2.31	2.54	2.04	1.86	2.2	2.77	2.69	1.99
[4], days in culture: 111	1.4	1.31	1.12	1.33	0.977	1.03	0.106	1.16
[4], days in culture: 128	1.28	1.47	1.23	1.6	1.16	1.35	0.0724	1.57
[5], days in culture: 172	2.56	1.71	3.2	1.24	2.75	1.11	0.15	1.35
[5], days in culture: 209	1.97	1.73	1.67	1.49	1.79	0.85	0.119	1.86
[5], days in culture: 218	1.73	1.73	1.72	2.01	1.43	1.14	0.203	1.73
[6], days in culture: 176	1.57	1.38	2.11	1.68	2.42	1.35	0.0917	1.72
[6], days in culture: 194	1.43	1.55	1.4	1.9	2.15	1.91	0.181	1.44
[6], days in culture: 201	2.1	1.98	2.09	2.08	2.19	1.53	0.145	1.71

[3]
Settings	CTG-3D luminescence at 96 h
12.5 pM	1.65
0.00025 µM	1.72
0.005 µM	1.54
0.1 µM	2.26
1 µM	1.71
10 µM	2.08
100 µM	1.71
625 fM	1.69
